Experimental findings from ChEMBL document CHEMBL4622896, “Enzymatic biosynthesis and biological evaluation of novel 17-AAG glucoside as potential anti-cancer agents” (Bioorg Med Chem Lett, 2020) are described below.

In data set [1] the test system is HepG2. The experiment in a line: Antiproliferative activity against human HepG2 cells assessed as cell growth inhibition by MTT assay. The data set is classed as functional, cell-based. A general note: Formazan colour is commonly taken as a measure of viable cells.
Data set [2] can be described thus: Toxicity in nude mouse xenografted with human CNE2Z cells assessed as effect on body weight at 5 mg/kg, ip administered for 19 days. The following applies: in vivo, 456 h. The data set is classed as organism-based.
Data set [3] can be described thus: Solubility of the compound in water. The data set is classed as physicochemical.
For data set [4], the system named is SMMC-7721. Kind of data set: Antiproliferative activity against human SMMC7721 cells assessed as cell growth inhibition by MTT assay. The class given is functional, cell-based.
Data set [5] concerns MDA-MB-231. Kind of data set: Antiproliferative activity against human MDA-MB-231 cells assessed as cell growth inhibition by MTT assay. The class given is functional, cell-based.
The test system of data set [6] is SW480. The experiment in a line: Antiproliferative activity against human SW480 cells assessed as cell growth inhibition by MTT assay. The data set is classed as functional, cell-based.
Data set [7] has as its system CNE2Z. The experiment in a line: Antiproliferative activity against human CNE2Z cells assessed as cell growth inhibition by MTT assay. The class given is functional, cell-based.
Data set [8] addresses T1, Heat shock protein HSP90 (Homo sapiens, UniProt P07900+P08238). Kind of data set: Inhibition of HSP90 in human CNE2Z cells assessed as downregulation of Bcl2 expression at 10 to 40 uM by Western blot analysis. The class given is cell-based. (In western blotting, separated proteins are transferred to a membrane and probed.)
Data set [9] concerns the target T1, Heat shock protein HSP90. The experiment in a line: Inhibition of HSP90 in human CNE2Z cells assessed as downregulation of c-Raf expression at 10 to 40 uM by Western blot analysis. The class given is cell-based.
In data set [10] the target is T1, Heat shock protein HSP90. Kind of data set: Inhibition of HSP90 in human CNE2Z cells assessed as downregulation of HIF-1alpha expression at 10 to 40 uM by Western blot analysis. The class given is cell-based.
Data set [11] deals with T1, Heat shock protein HSP90. The experiment in a line: Inhibition of HSP90 in human CNE2Z cells assessed as downregulation of Her-2 expression at 10 to 40 uM by Western blot analysis. The data set is classed as cell-based.
Data set [12] in a line: Solubility of the compound in water relative to 17-AAG. The class given is physicochemical. The settings on record: buffer.
The nature of data set [13]: Toxicity in nude mouse xenografted with human CNE2Z cells assessed as effect on body weight at 1 mg/kg, ip administered for 19 days. The class given is organism-based. The settings on record: in vivo, 456 h.
Data set [14] in a line: Toxicity in nude mouse xenografted with human CNE2Z cells assessed as effect on kidney at 1 mg/kg, ip administered for 19 days by hematoxylin and eosin staining based assay. The class given is organism-based. The following applies: in vivo, 456 h. Background: A xenograft is tissue or cells of one species grown in another, often human tumour cells in immunodeficient mice.

Data set [15] relates to CNE2Z. Kind of data set: Antitumor activity against human CNE2Z cells xenografted in nude mouse assessed as reduction in tumor volume at 1 mg/kg, ip administered for 19 days relative to control. The data set is classed as functional. The following applies: 456 h.
The target in data set [16] is T1, Heat shock protein HSP90. Kind of data set: Inhibition of HSP90 ATPase activity (unknown origin) malachite-green phosphate assay. The class given is protein assay.
The nature of data set [17]: Toxicity in nude mouse xenografted with human CNE2Z cells assessed as effect on lung at 1 mg/kg, ip administered for 19 days by hematoxylin and eosin staining based assay. The class given is organism-based. The settings on record: in vivo, 456 h.
Data set [18] addresses T1, Heat shock protein HSP90. Kind of data set: Inhibition of HSP90 in human CNE2Z cells assessed as downregulation of Akt expression at 10 to 40 uM by Western blot analysis. The data set is classed as cell-based.
Data set [19] in a line: Toxicity in nude mouse xenografted with human CNE2Z cells assessed as effect on liver at 1 mg/kg, ip administered for 19 days by hematoxylin and eosin staining based assay. The data set is classed as organism-based. The settings on record: in vivo, 456 h.

pIC50: −log10 of the molar value. In brackets after ≈: the same amount, converted by molar mass. Activity calls are given as the source filed them. The calls are words filed in the database; no cut-off is given here.

In general, pIC50 refers to the IC50 on a negative log10 scale, so that one unit is a factor of ten. As usually defined, the solubility is the concentration that dissolves in the medium under given conditions. Low values mean little dissolved substance, high ones much dissolved substance. In the case of `C=CCNC1=C2C[C@@H](C)C[C@H](OC)[C@H](O)[C@@H](C)/C=C(\C)[C@H](OC(N)=O)[C@@H](OC)/C=C\C=C(/C)C(=O)NC(=CC1=O)C2=O` [TANESPIMYCIN], the pIC50 is 6.49 in data set [1]; 6.72 in [4]; 5.75 in [5]; 6.55 in data set [6]; 5.08 in data set [7]. Further, in [2], the Activity result is “Non-Toxic”. Moreover, the solubility in [3] turned out to be 63 µM (≈ 36.9 µg/mL).

As usually defined, the inhibition in vivo is the change of the read-out against control, counted positive when it falls. By IC50 is commonly meant the concentration needed to halve the response being measured. Low values mean greater potency in that assay, high ones weaker potency in that assay. Consider `C=CCNC1=C2C[C@@H](C)C[C@H](OC)[C@H](O[C@@H]3O[C@H](CO)[C@@H](O)[C@H](O)[C@H]3O)[C@@H](C)/C=C(\C)[C@H](OC(N)=O)[C@@H](OC)/C=C\C=C(/C)C(=O)NC(=CC1=O)C2=O` (stereo in doubt), for which the inhibition result in data set [8], in data set [9], in [10], in [11] and in data set [18] was “Active” throughout. Besides, the pIC50 in [1] was 5.20; in data set [4], 5.28; in [5] it was 4.54; in data set [6], 5.21; in [7], 5.04. Also, the Ratio in [12] is on record as 10.5. The Activity result in data set [13], in data set [14], in data set [17] and in data set [19] was “Non-Toxic” in each case. The inhibition in vivo at 1 mg/kg in [15] worked out at 75.5%. The compound further showed an IC50 in [16] greater than 100 µM. The solubility in data set [3] is 661 µM (≈ 494 µg/mL).

Turning to `COC1=C2C[C@@H](C)C[C@H](OC)[C@H](O)[C@@H](C)/C=C(\C)[C@H](OC(N)=O)[C@@H](OC)/C=C\C=C(/C)C(=O)NC(=CC1=O)C2=O` [GELDANAMYCIN], the pIC50 in data set [1] is 5.76; in data set [4] it was 6.96; in [5] it was 6.21; in data set [6] it was 6.29; in data set [7] it was 6.51.
